Experimental data: patent US20110028444A1, “PHARMACEUTICALLY ACCEPTABLE SALTS OF ANTI-INFECTION QUINOLONE COMPOUNDS” (priority 2008, published 2011)
Converted amounts (≈) assume the structure as drawn. Where two headings read alike, the source gives them in different places.

Assays:
[1] = test system: Staphylococcus aureus; assay: In-vitro antibacterial test, agar dilution MIC; assay type: cell-based; conditions: Staphylococcus aureus, read-out: In-vitro MIC
Excerpt: (§4) The test bacterial strains were the standard quality control test strains of Klebsiella pneumoniae strains (Strains No. CMCC 46114-8), Pseudomonas aeruginosa (Strains No. ATCC 27853), Escherichia coli (Strains No. ATCC25922), and Staphylococcus aureus cocci (Strains No. ATCC25925). Other bacteria included those isolated from sputum, throat swab or urine of patients with acute bacterial respiratory tract infection or urinary tract infection and identified by the hospitals.
(§5) HCl levofloxacin injection and NaCl ciprofloxacin lactate injection were diluted with sterilized distilled water to a concentration of 1920 μg/mL.

[2] = test system: Klebsiella pneumoniae, Pseudomonas aeruginosa, Staphylococcus aureus, Escherichia coli, Enterococcus faecalis, Streptococcus pneumoniae, Enterobacter cloacae …; assay: In-vitro antibacterial tests, summary over the tested bacteria; assay type: cell-based
Experimental: (§1) Test method: the agar dilution method was used for the minimum inhibitory concentration (MIC) determination. The antibacterial chemicals were mixed with given amounts of agar in various concentrations and the mixtures were made into solid plates. Each plate had the antibacterial concentration two times higher than the next plate. Bacteria species were then added to the surface of the plates, cultured, and observed for their growth.
(§2) Other bacteria included those isolated from sputum, throat swab or urine of patients with acute bacterial respiratory tract infection or urinary tract infection and identified by the hospitals.
(§3) (S)-6-fluoro-1-methyl-4-oxo-7-(1-piperazinyl)-1H,4H-[1,3]thiazeto[3,2-a]quino line-3-carboxylic acid lactate and other test samples, equivalent to 96 mg of ulifloxacin, were dissolved in sterilized distilled water to make up 50 mL of each solution.

[3] = test system: Enterobacter cloacae; assay: In-vitro antibacterial test, agar dilution MIC; assay type: cell-based; conditions: agar dilution, read-out: In-vitro MIC
Excerpt: as §4, §5

[4] = test system: Streptococcus pneumoniae; assay: In-vitro antibacterial test, agar dilution MIC; assay type: cell-based; conditions: Streptococcus pneumoniae; agar dilution; read-out: In-vitro MIC
Experimental: as §1, §2, §3

[5] = test system: Klebsiella pneumoniae; assay: In-vitro antibacterial test, agar dilution MIC; assay type: cell-based; conditions: Klebsiella pneumoniae
Excerpt: as §4, §5

[6] = test system: SD rats
Experimental: The dose without toxic reaction was thereby determined and the long term toxicity to SD rats was tested. One hundred forty SD rats were randomly divided into 7 groups depending on their body weight and sex; each group had 20 rats with 10 males and 10 females. […] The rats were administrated by intravenous injection, once a day for consecutive 4 weeks. The recovery was monitored for 2 weeks after treatment.
Drug preparation: the drugs were dissolved with a saline solution to the desired concentration before administration. Administration: intravenous injection. Delivery period: 28 days continuously. Observation and inspection: Observation and inspection projects, targets and time: including the general state of observation (7), hematologic (16), biochemical blood test (18), urine (10) and pathological examination.
General observation: the appearance of signs, behavior, glands, respiratory and stool, daily observation and timely recording, discovering dead or dying animals, timely anatomical examination, food intake, and body weight once weekly.
Blood tests: abdominal aortic blood for hematology testing, in the 16 testing indicators, leukocyte classification using whole blood smear, Wright stain staining; prothrombin time (PT) with a 0.109 mmol/L of citrate Citrus medica sodium (with blood volume ratio of 1:9) anticoagulant, 3000 r/min centrifugal 10 min, taking with BE Thromotimer plasma coagulation analyzer (Germany) determination; other indicators to EDTA anticoagulant, using SWELAB AC920EO automated hematology analyzer (Sweden).
Biochemical blood tests: blood sampling method same as above, blood serum obtained by 3000 r/min centrifugal 10 min. In the 21 indicators, the Na+, K+, Cl^− were determined using EasyLyte Plus Na/K/Cl analyzer (USA), the other indexes of blood were determined using a Hitachi 7020 automatic biochemical analyzer (Japan) determination.
Urine tests: 16 h urine collection, using [sequence] 100 urine analyzer.
Pathology: after anesthesia, the animal was killed by blood letting of the abdominal aorta. System anatomy and visual observation of changes in various organs were performed; and organ weights were determined. Tissue was fixed in 10% neutral formalin; plates were made by conventional paraffin producers, HE staining, and light microscopy.
Statistical analysis: In the different groups, the body weight, hematology, blood chemistry, urine measurements, organ weights, organ coefficient were calculated for the mean±standard deviation and t-test comparison between groups. Pathological abnormalities according to their incidence and severity were compared between groups.

[7] = test system: New Zealand rabbit ear vein and surrounding tissues; assay: Vascular irritation tests; assay type: in vivo, New Zealand rabbits; conditions: vein injection once a day for 3 days, high and low doses
Excerpt: Sixteen New Zealand rabbits were divided into 4 groups: a control group and three treatment groups for compounds 4, 5, and 6, respectively; each group had 4 rabbits. The rabbits of the treatment groups were vein-injected on their left ears with high doses of the test samples and on their right ears with low doses of the test samples. The rabbits of the control group were rein-injected on their both left and right ears with sodium chloride solution. The injections continued for 3 days, once a day. Two rabbits from each group were anatomized after 24 hours of each injection.

[8] = test system: Vibrio cholerae; assay: In-vitro antibacterial test, agar dilution MIC; assay type: cell-based; conditions: Vibrio cholerae, read-out: In-vitro MIC
Excerpt: as §4, §5

[9] = test system: Enterococcus faecalis; assay: In-vitro antibacterial test, agar dilution MIC; assay type: cell-based; conditions: read-out: In-vitro MIC
Excerpt: as §4, §5

[10] = test system: Pseudomonas aeruginosa; assay: In-vitro antibacterial test, agar dilution MIC; assay type: cell-based; conditions: Pseudomonas aeruginosa, read-out: In-vitro MIC
Excerpt: as §4, §5

[11] = Solubility test: maximum solubility in water; assay type: physicochemical; conditions: 25 °C, water, thermodynamic from solid
Experimental: Three lots of mesylates and three lots of lactates, respectively, were subjected to preliminary tests for maximum solubility in water. At ambient temperature (25° C.), 0.2 g of sample was dissolved in 1 mL of water. To the solution was added 0.1 g of the sample each time until the sample could no longer be dissolved. The amount of sample dissolved was the maximum solubility.

[12] = test system: Sprague-Drwlog rats; conditions: intravenous injection, four weeks; cited from earlier work
[13] = test system: Escherichia coli; assay: In-vitro antibacterial test, agar dilution MIC; assay type: cell-based; conditions: Escherichia coli; agar dilution; read-out: In-vitro MIC
Excerpt: as §4, §5

[14] = test system: rats; conditions: rat, in vivo; cited from earlier work
[15] = test system: mice; conditions: mouse, in vivo; cited from earlier work
[16] = high dose group (60 mg/kg·bw), after 28 days, tissue microscopy

## CS(=O)(=O)O.C[C@@H]1Sc2c(C(=O)O)c(=O)c3cc(F)c(N4CCNCC4)cc3n21 [Compound 5, (S)-6-fluoro-1-methyl-4-oxo-7-(1-piperazinyl)-1H,4H-[1,3]thiazeto[3,2-a]quinoline-3-carboxylic acid mesylate]
[1]
  MIC: 0.25 µg/mL
[2]; against the above four bacteria, concentrations calculated as equivalents to NM394
  antibacterial activities compared with compounds 7 and 8: slightly stronger
[2]; against the eight tested bacteria
  antibacterial activity (in words): relatively strong antibacterial activity
[3]
  MIC: 0.5 µg/mL
[4]
  MIC: 0.01 µg/mL
[5]
  MIC: 0.02 µg/mL
[6]; SD rats, 28 days continuous intravenous administration, calculated based on NM394
  NOAEL (no observed adverse effect level): 30 mg/kg·bw
[6]; SD rats, intravenous
  targeted organ of toxicity: the kidney
[6]; [16]
  rats with crystals in renal tubules: two
  rats with kidney protein casts: one
  rats with mild cortical tubular dilatation: two
[7]
  irritation to ear vein and surrounding tissues: no irritation
[8]
  MIC: 0.02 µg/mL
[9]
  MIC: 0.2 µg/mL
[10]
  MIC: 0.25 µg/mL
[11]
  solubility: 490 mg/mL

## CC1Sc2c(C(=O)O)c(=O)c3cc(F)c(N4CCNCC4)cc3n21 (racemic) [Ulifloxacin, 6-fluoro-1-methyl-4-oxo-7-(1-piperazinyl)-1H,4H-[1,3]thiazeto[3,2-a]quinoline-3-carboxylic acid, reference compound]
[1]; agar dilution
  MIC: 0.5 µg/mL (≈ 1.43 µM)
[3]
  MIC: 1 µg/mL (≈ 2.86 µM)
[4]
  MIC: 0.031 µg/mL (≈ 0.0887 µM)
[12]
  NOAEL (no observed adverse effect level) dose: 3 mg/kg
[13]
  MIC: 0.08 µg/mL (≈ 0.229 µM)
[14]
  toxic effects of intravenous injection: convulsions, difficult breathing, injection site redness, swelling, and necrosis
[15]
  toxic effects of intravenous injection: losing weight, testicular atrophy, and visible pulmonary congestion
[10]; agar dilution
  MIC: 0.5 µg/mL (≈ 1.43 µM)
